Measured values from the NIST ThermoML archive (doi:10.1021/je1000796).

Test: mn = molality of the nth substance listed, in mol/kg
Details: 101 kPa, Liquid; for viscosity: Capillary tube (Ostwald / Ubbelohde) method

COC(=O)[C@H](c1ccccc1Cl)N1CCc2sccc2C1.O=S(=O)(O)O [(S)-(+)-Clopidogrel hydrogen sulfate] + CCO
Details	mass density [kg/m3]	viscosity [mPa·s]
278.15 K, m1 = 0.001	801	1.632
278.15 K, m1 = 0.003	801.6	1.638
278.15 K, m1 = 0.005	802.3	1.645
278.15 K, m1 = 0.007	802.9	1.665
278.15 K, m1 = 0.009	803.5	1.671
278.15 K, m1 = 0.011	803.9	1.674
278.15 K, m1 = 0.013	804.5	1.68
278.15 K, m1 = 0.015	805	1.687
283.15 K, m1 = 0.001	798	1.476
283.15 K, m1 = 0.003	798.4	1.484
283.15 K, m1 = 0.005	798.9	1.489
283.15 K, m1 = 0.007	799.3	1.502
283.15 K, m1 = 0.009	799.8	1.505
283.15 K, m1 = 0.011	800.1	1.508
283.15 K, m1 = 0.013	800.6	1.514
283.15 K, m1 = 0.015	800.9	1.523
288.15 K, m1 = 0.001	794.2	1.335
288.15 K, m1 = 0.003	794.5	1.343
288.15 K, m1 = 0.005	794.9	1.346
288.15 K, m1 = 0.007	795.4	1.359
288.15 K, m1 = 0.009	795.9	1.36
288.15 K, m1 = 0.011	796.2	1.361
288.15 K, m1 = 0.013	796.5	1.365
288.15 K, m1 = 0.015	796.8	1.373
293.15 K, m1 = 0.001	790.4	1.211
293.15 K, m1 = 0.003	790.8	1.214
293.15 K, m1 = 0.005	791	1.223
293.15 K, m1 = 0.007	791.4	1.235
293.15 K, m1 = 0.009	791.8	1.236
293.15 K, m1 = 0.011	792.2	1.238
293.15 K, m1 = 0.013	792.8	1.243
293.15 K, m1 = 0.015	793	1.25
298.15 K, m1 = 0.001	786.1	1.101
298.15 K, m1 = 0.003	786.6	1.103
298.15 K, m1 = 0.005	786.9	1.109
298.15 K, m1 = 0.007	787.2	1.12
298.15 K, m1 = 0.009	787.7	1.121
298.15 K, m1 = 0.011	788	1.123
298.15 K, m1 = 0.013	788.4	1.126
298.15 K, m1 = 0.015	788.7	1.131
303.15 K, m1 = 0.001	781.2	0.9985
303.15 K, m1 = 0.003	781.8	1.003
303.15 K, m1 = 0.005	782.1	1.006
303.15 K, m1 = 0.007	782.5	1.012
303.15 K, m1 = 0.009	782.9	1.015
303.15 K, m1 = 0.011	783.2	1.017
303.15 K, m1 = 0.013	783.4	1.019
303.15 K, m1 = 0.015	783.9	1.023
308.15 K, m1 = 0.001	778.2	0.9134
308.15 K, m1 = 0.003	778.5	0.9149
308.15 K, m1 = 0.005	778.7	0.9166
308.15 K, m1 = 0.007	778.9	0.9224
308.15 K, m1 = 0.009	779.1	0.9236
308.15 K, m1 = 0.011	779.4	0.9256
308.15 K, m1 = 0.013	779.8	0.928
308.15 K, m1 = 0.015	780.2	0.9307
313.15 K, m1 = 0.001	773.7	0.8328
313.15 K, m1 = 0.003	773.9	0.8348
313.15 K, m1 = 0.005	774.2	0.8359
313.15 K, m1 = 0.007	774.5	0.8409
313.15 K, m1 = 0.009	774.8	0.8441
313.15 K, m1 = 0.011	775.2	0.8458
313.15 K, m1 = 0.013	775.7	0.8473
313.15 K, m1 = 0.015	776	0.8496
